Data published in patent publication US11000033B2, “Ketone or oxime compound, and herbicide” (NISSAN CHEMICAL CORPORATION, priority 2014, dated 2021).

Key:
Assay type in all cases: in vivo
Scirpus juncoides [1] = test: Test Example 2: herbicidal activity, application during weed generation in submerged conditions (symbol B); details: Table 23; application herbicide amount 320 g/ha; grade 0-5 by criteria of Test Example 1
Summary of the method: (§1)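 Treatment timing was the one- to two-leaf stage, with diluted emulsifiable compound dropped onto the paddy water (depth 4 cm) over alluvial soil. All three species grew from a mixed sowing in a 25° C. to 30° C. greenhouse. Injury was judged by eye 3 weeks on.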

rapeseed = test: Test Example 5: effect on crop by foliage application, plastic box (symbol g); details: 320 g/ha, 3 weeks after application
Summary of the method: (§2)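 Plants were raised from seed in a greenhouse (25° C. to 30° C.) after sowing in a plastic box of sterilized diluvial soil.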

[2] = system: Echinochloa crus-galli var. crus-galli; test: Test Example 3: herbicidal effect by foliage application, Wagner pot (symbol H); details: application herbicide amount 320 g/ha, Table 24
Summary of the method: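 The compound, formulated as an emulsion and diluted with water to a predetermined rate, is applied uniformly to leaves of two-week-old seedlings growing in submerged alluvial soil at 25–30 °C. Rice is included. Each plant is assessed 3 weeks later using defined criteria.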

Avena fatua = test: Test Example 4: herbicidal effect by soil treatment (symbol I); details: application herbicide amount 320 g/ha
Summary of the method: (§3)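 Seeds were sown in sterilized diluvial soil, covered with about 1.5 cm of soil, and the soil surface was sprayed with a water-diluted emulsion of the compound at a predetermined rate. Plants grew in a greenhouse at 25° C. to 30° C.; effects were scored visually 3 weeks after application.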

Chenopodium album [3] = test: Test Example 4: herbicidal effect by soil treatment (symbol O); details: application herbicide amount 320 g/ha
Summary of the method: as §3

Stellaria media = test: Test Example 4: herbicidal effect by soil treatment (symbol P); details: application herbicide amount 320 g/ha
Summary of the method: as §3

Scirpus juncoides [4] = test: Test Example 1: herbicidal activity, application before weed generation in submerged conditions (symbol B); details: application herbicide amount 320 g/ha
Summary of the method: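 Application before weed emergence: an aqueous dilution of the emulsion formulation was poured onto the surface of 4 cm-deep floodwater on the day of sowing. Effect was judged after 3 weeks (greenhouse, 25–30 °C).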

Digitaria ciliaris = test: Test Example 5: herbicidal effect by foliage application, plastic box (symbol F); details: 320 g/ha, 3 weeks after application
Summary of the method: (§4)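 Emulsion formulation, diluted with water to the intended rate, was applied uniformly to leaves by small sprayer. Recipients were 14-day greenhouse-grown seedlings (25° C. to 30° C.). Assessment followed at 3 weeks.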

Chenopodium album [5] = test: Test Example 5: herbicidal effect by foliage application, plastic box (symbol O); details: 320 g/ha, 3 weeks after application
Summary of the method: as §4

[6] = system: Echinochloa oryzacola Vasing.; test: Test Example 2: herbicidal activity, application during weed generation in submerged conditions (symbol A); details: Table 23; application herbicide amount 320 g/ha; grade 0-5 by criteria of Test Example 1
Summary of the method: as §1

rice plant = test: Test Example 5: effect on crop by foliage application, plastic box (symbol b); details: 320 g/ha, 3 weeks after application
Summary of the method: as §2

beet = test: Test Example 4: effect on crop by soil treatment (symbol f); details: application herbicide amount 320 g/ha
Summary of the method: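 Soil-treatment setup: crop and weed seeds were spot-sown into sterilized diluvial soil, then buried beneath approximately 1.5 cm of it, and the boxes were housed in a 25–30° C. greenhouse.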

Row | SMILES | Herbicidal effect grade, B: Scirpus juncoides (Scirpus juncoides [1]) | g: rapeseed, effect on crop grade (rapeseed) | H (Echinochloa crus-galli var. crus-galli) herbicidal effect grade [2] | Herbicidal effect grade, I: Avena fatua (Avena fatua) | Herbicidal effect grade, O: Chenopodium album (Chenopodium album [3]) | Herbicidal effect grade, P: Stellaria media (Stellaria media) | B (Scirpus juncoides) herbicidal effect grade (Scirpus juncoides [4]) | F: Digitaria ciliaris, herbicidal effect grade (Digitaria ciliaris) | O: Chenopodium album, herbicidal effect grade (Chenopodium album [5]) | Herbicidal effect grade, A: Echinochloa oryzacola Vasing. [6] | b: directly sowed rice plant, effect on crop grade (rice plant) | Effect on crop grade, f: beet (beet) | I: Avena fatua, herbicidal effect grade (Avena fatua) | O: Chenopodium album, herbicidal effect grade (Chenopodium album [3]) | P: Stellaria media, herbicidal effect grade (Stellaria media) | f: beet, effect on crop grade (beet)
1 | CON=C(C)CC1(C)CC(O)=C(c2c(C)cc(C)cc2C)C1=O (mixture of isomers) [11-002] | 0 (Herbicidal ratio of 5% or lower (almost no effect)) | 4 (Herbicidal ratio of 70% or higher and lower than 90%) | 5 (Herbicidal ratio of 90% or more (almost completely withered)) | 3 (Herbicidal ratio of 40% or higher and lower than 70%) | 0 (Herbicidal ratio of 5% or lower (almost no effect)) | 0 (Herbicidal ratio of 5% or lower (almost no effect)) | 0 (Herbicidal ratio of 5% or lower (almost no effect)) | 4 (Herbicidal ratio of 70% or higher and lower than 90%) | 0 (Herbicidal ratio of 5% or lower (almost no effect)) | 2 (Herbicidal ratio of 20% or higher and lower than 40%) | 5 (Herbicidal ratio of 90% or more (almost completely withered)) | 0 (Herbicidal ratio of 5% or lower (almost no effect)) | – | – | – | –
2 | CON=C(CC1CC(O)=C(c2c(C)cc(-n3cc(Cl)cn3)cc2C)C1=O)C1CC1 (stereo not drawn) [9-007] | 4 (Herbicidal ratio of 70% or higher and lower than 90%) | 4 (Herbicidal ratio of 70% or higher and lower than 90%) | 5 (Herbicidal ratio of 90% or more (almost completely withered)) | 3 (Herbicidal ratio of 40% or higher and lower than 70%) | 0 (Herbicidal ratio of 5% or lower (almost no effect)) | 0 (Herbicidal ratio of 5% or lower (almost no effect)) | 4 (Herbicidal ratio of 70% or higher and lower than 90%) | 5 (Herbicidal ratio of 90% or more (almost completely withered)) | 3 (Herbicidal ratio of 40% or higher and lower than 70%) | 5 (Herbicidal ratio of 90% or more (almost completely withered)) | 5 (Herbicidal ratio of 90% or more (almost completely withered)) | 0 (Herbicidal ratio of 5% or lower (almost no effect)) | – | – | – | –
3 | COc1cc(Br)cc(C)c1C1=C(O)CC(CC(=O)C2CC2)C1=O (racemic) [14-001] | 0 (Herbicidal ratio of 5% or lower (almost no effect)) | 4 (Herbicidal ratio of 70% or higher and lower than 90%) | 5 (Herbicidal ratio of 90% or more (almost completely withered)) | – | – | – | 3 (Herbicidal ratio of 40% or higher and lower than 70%) | 5 (Herbicidal ratio of 90% or more (almost completely withered)) | 0 (Herbicidal ratio of 5% or lower (almost no effect)) | 5 (Herbicidal ratio of 90% or more (almost completely withered)) | 5 (Herbicidal ratio of 90% or more (almost completely withered)) | – | 5 (Herbicidal ratio of 90% or more (almost completely withered)) | 0 (Herbicidal ratio of 5% or lower (almost no effect)) | 0 (Herbicidal ratio of 5% or lower (almost no effect)) | 0 (Herbicidal ratio of 5% or lower (almost no effect))
